Measurements reported in patent EP4782453A1 (Beyang Therapeutics Co., Ltd., priority 2023, dated 2025).
Like-named read-outs stand apart in the source and are kept apart here.

Assays:
Menin-MLL = molecular target: T1, Menin-MLL (Homo sapiens, UniProt O00255); experiment: Inhibitory activity against Menin-MLL binding (fluorescence polarization); conditions: 150 nM His-Menin, 15 nM FITC-MLL, 25°C for 60 min
T1 construct: His-Menin (M1-L615 end); purchased BIORTUS BP9210
T1 sequence (O00255 1-615 isoform O00255-1): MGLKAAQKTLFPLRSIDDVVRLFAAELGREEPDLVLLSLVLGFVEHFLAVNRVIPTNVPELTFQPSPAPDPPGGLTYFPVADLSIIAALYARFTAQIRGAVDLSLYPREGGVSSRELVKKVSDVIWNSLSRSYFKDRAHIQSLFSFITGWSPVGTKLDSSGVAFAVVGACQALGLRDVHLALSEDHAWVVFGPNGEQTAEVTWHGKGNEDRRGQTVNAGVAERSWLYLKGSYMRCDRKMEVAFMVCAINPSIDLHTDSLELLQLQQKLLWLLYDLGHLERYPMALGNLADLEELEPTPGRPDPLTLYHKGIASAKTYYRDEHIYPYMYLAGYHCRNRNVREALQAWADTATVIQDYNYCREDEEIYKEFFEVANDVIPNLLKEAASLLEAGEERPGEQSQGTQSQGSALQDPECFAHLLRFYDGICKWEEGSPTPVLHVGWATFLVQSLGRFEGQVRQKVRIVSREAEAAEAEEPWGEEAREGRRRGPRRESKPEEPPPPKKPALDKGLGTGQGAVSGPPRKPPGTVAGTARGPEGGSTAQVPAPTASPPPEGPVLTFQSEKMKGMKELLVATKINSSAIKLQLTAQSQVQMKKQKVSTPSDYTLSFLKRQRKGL
Summary of the method: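 His-Menin (M1-L615, 150 nM) preincubated with compound 15 min at 25 °C in HEPES pH 7.5, 50 mM NaCl, 1 mM DTT, 0.01% BSA, then 15 nM FITC-MLL4-43 peptide added for 60 min at 25 °C. Fluorescence polarization read; IC50 from 4-parameter logistic fit, duplicates.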

[1] = tested on: MOLM-13 (carrying MLL-AF9); experiment: Inhibition of proliferation of human tumor cells (Alamar Blue, 7 days), MOLM-13; assay type: cell-based; conditions: Homo sapiens, MOLM-13 cells (carrying MLL-AF9), method calls the value GI50
Excerpt: Experimental Example 2: Evaluation of Inhibitory Activity of Compounds Against Proliferation of Human Tumor Cells
• Human acute lymphoblastic leukemia cells MV-4-11, purchased from American Type Culture Collection, Catalog Number: CRL-9591; • Human acute myeloid leukemia cells MOLM-13, purchased from COBIOER BIOSCIENCES CO., LTD, Catalog Number: CBP60678; • Human acute myeloid leukemia cells KG-1a, purchased from American Type Culture Collection, Catalog Number: CCL-246.1; • Inverted Microscope, purchased from Olympus Tokyo; • Countess™ Automated Cell Counter, purchased from Invitrogen, Model: C10281; and • Multilabel Reader, purchased from Bio-Tek, Model: Synergy HT.
MV-4-11 cells were cultured in an IMDM medium containing 10% fetal bovine serum, KG-a cells were cultured in an IMDM medium containing 20% fetal bovine serum, or MOLM-13 cells were cultured in an RPMI-1640 medium containing 20% fetal bovine serum, each supplemented with 100 U·mL^-1 penicillin and 100 µg·mL^-1 streptomycin. These cells were cultured at 37°C with 5% CO2. The suspensions of individual cell lines were prepared in their respective media and seeded into 96-well plates at a density of 4,000 cells/well for MV-4-11 and MOLM-13 cells, or 3,000 cells/well for KG-1a cells. On the day of the experiment, a compound stock solution was diluted in a 3-fold or 4-fold gradient using DMSO. Each gradient-diluted stock solution was then further diluted 250-fold with a complete medium to prepare a series of working solutions at different concentrations. Subsequently, 100 µL of working solution (containing a 2-fold concentration series of the test compound) was added to each well, with duplicate wells set up for each concentration.
Seven days after compound addition (on Day 7), an Alamar Blue assay reagent (MCE, HY-111391 / CS-0040317) was added to measure the fluorescence intensity in each well. Wells containing the cells in the growth medium supplemented with 0.1% DMSO (Day 7) served as high-read control wells. The readouts from the wells containing the cells in the growth medium supplemented with 0.1% DMSO on the day of compound addition (Day 0) served as low-reading control well. GraphPad Prism software was used to calculate the concentration required to inhibit 50% of cell proliferation (GI50), which serves as a cell proliferation inhibition activity index.

[2] = fluorescence polarization, read-out: Menin-MLL IC50
[3] = Menin-MLL IC50, fluorescence polarization

SMILES | IC50 (Menin-MLL; [2]) | IC50 ([1]; 168 h) | IC50 (Menin-MLL; [3]) | IC50 ([1]; MOLM-13, 168 h)
CCN(C(=O)c1cc(F)ccc1-c1cc(C2CN([C@@H](CN3CCN(C)CC3)C(C)C)C2)cn2c(C)ncc12)C(C)C [Example 403-2, N-ethyl-5-fluoro-2-(3-methyl-6-{1-[(2R)-3-methyl-1-(4-methylpiperazin-1-yl)butan-2-yl]azacyclobutan-3-yl}imidazo[1,5-a]pyridin-8-yl)-N-(isopropyl)benzamide] | 10 nM | 38 nM | – | –
CCN(C(=O)c1cc(F)ccc1-c1cc(C2CN([C@H](CCCN3CCC(S(C)(=O)=O)CC3)C(C)C)C2)cn2c(C)ncc12)C(C)C [Example 404] | 2.3 nM | 8.1 nM | – | –
CCN(C(=O)c1cc(F)ccc1-c1cc(C2CN([C@H](CCCN3CCC(NC(C)=O)CC3)C(C)C)C2)cc2c1cnn2C)C(C)C [Example 405] | 1.6 nM | 7.2 nM | – | –
CCN(C(=O)c1cc(F)ccc1-c1cc(C2CN([C@H](CCCN3CCC(S(C)(=O)=O)CC3)C(C)C)C2)cc2c1cnn2C)C(C)C [Example 406] | 7 nM | 37 nM | – | –
CCN(C(=O)c1cc(F)ccc1-c1cc(C2CN([C@H](CCCN3CCC(NS(=O)(=O)CC)CC3)C(C)C)C2)cn2c(C)ncc12)C(C)C [Example 408, 2-(6-{1-[(3R)-6-(4-ethanesulfonamidopiperidin-1-yl)-2-methylhexan-3-yl]azacyclobutan-3-yl}-3-methylimidazo[1,5-a]pyridin-8-yl)-N-ethyl-5-fluoro-N-(isopropyl)benzamide] | 1.7 nM | 4.2 nM | – | –
CCN(C(=O)c1cc(F)ccc1-c1cc(C2CN([C@H](CCCN3CC4(C3)CN(C(C)=O)C4)C(C)C)C2)cc2c1cnn2C)C(C)C [Example 409] | 4 nM | 31 nM | – | –
CCN(C(=O)c1cc(F)ccc1-c1cc(C2CN([C@H](CCCN3CCN(CCF)CC3)C(C)C)C2)cc2c1cnn2C)C(C)C [Example 410] | 5.8 nM | 37 nM | – | –
CCN(C(=O)c1cc(F)ccc1-c1cc(C2CN([C@H](CCCN3CCC(NS(=O)(=O)CC)CC3)C(C)C)C2)cc2c1cnn2C)C(C)C [Example 411] | 2.7 nM | 12 nM | – | –
CCN(C(=O)c1cc(F)ccc1-c1cc(C2CN([C@H](CCCN3CCN(C[C@H](O)CO)CC3)C(C)C)C2)cc2c1cnn2C)C(C)C [Example 412] | 6.8 nM | 39 nM | – | –
CCN(C(=O)c1cc(F)ccc1-c1cc(C2CN([C@H](CCCN3CCN(C[C@@H](O)CO)CC3)C(C)C)C2)cc2c1cnn2C)C(C)C [Example 413] | 6.9 nM | 45 nM | – | –
CCN(C(=O)c1cc(F)ccc1-c1cc(C2CN([C@H](CN3CCN(CCO)CC3)C(C)C)C2)cc2c1cnn2C)C(C)C [Example 416-2, N-ethyl-5-fluoro-2-(6-{1-[(2S)-1-[4-(2-hydroxyethyl)piperazin-1-yl]-3-methylbutan-2-yl]azacyclobutan-3-yl}-1-methyl-1H-indazol-4-yl)-N-(isopropyl)benzamide] | 10.6 nM | 69 nM | – | –
CCN(C(=O)c1cc(F)ccc1-c1cc(C2CN([C@H](CN3CCN(C(CO)CO)CC3)C(C)C)C2)cc2c1cnn2C)C(C)C [Example 419] | 8.1 nM | 85 nM | – | –
CCC(=O)NC1CCN(CCC[C@H](C(C)C)N2CC(c3cc(-c4ccc(F)cc4C(=O)N(CC)C(C)C)c4cnc(C)n4c3)C2)CC1 [Example 425] | 2.7 nM | 9.9 nM | – | –
CCN(C(=O)c1cc(F)ccc1-c1cc(C2CN([C@H](CCCN3C4COCC3C4)C(C)C)C2)cc2c1cnn2C)C(C)C [Example 426] | 3.2 nM | 30 nM | – | –
CCN(C(=O)c1cc(F)ccc1-c1cc(C2CN([C@H](CN3CCN(C[C@H](O)CO)CC3)C(C)C)C2)cn2c(C)ncc12)C(C)C [Example 428] | 3.7 nM | 52 nM | – | –
CCN(C(=O)c1cc(F)ccc1-c1cc(C2CN([C@H](CN3CCN(C[C@@H](O)CO)CC3)C(C)C)C2)cn2c(C)ncc12)C(C)C [Example 429] | 2.6 nM | 25 nM | – | –
CCN(C(=O)c1cc(F)ccc1-c1cc(C2CN([C@H](CN3CCN(CCOC)CC3)C(C)C)C2)cn2c(C)ncc12)C(C)C [Example 430] | 8.4 nM | 46 nM | – | –
CCN(C(=O)c1cc(F)ccc1-c1cc(C2CN([C@H](CCCN3CCN(C(CO)CO)CC3)C(C)C)C2)cc2c1cnn2C)C(C)C [Example 433, 2-(6-{1-[(3R)-6-[4-(1,3-dihydroxylpropan-2-yl)piperazin-1-yl]-2-methylhexan-3-yl]azacyclobutan-3-yl}-1-methyl-1H-indazol-4-yl)N-ethyl-5-fluoro-N-(isopropyl)benzamide] | 3.3 nM | 18 nM | – | –
CCN(C(=O)c1cc(F)ccc1-c1cc(C2CN([C@H](CN3CCN(C[C@@H](O)CO)CC3)C(C)C)C2)cc2c1cnn2C)C(C)C [Example 434] | – | – | 8.8 nM | 32 nM
CCN(C(=O)c1cc(F)ccc1-c1cc(C2CN([C@H](CN3CCN(C(CO)CO)CC3)C(C)C)C2)cn2c(C)ncc12)C(C)C [Example 435] | 4.9 nM | 26 nM | – | –
Cc1ncc2c(-c3ccc(F)cc3C(=O)N(C)C(C)C)cc(C3CN(C(CCCN4CCN(C)CC4)C(C)C)C3)cn12 (stereo not shown) [Example 436, 5-fluoro-N-methyl-2-(3-methyl-6-{1-[2-methyl-6-(4-methylpiperazin-1-yl)hexan-3-yl]azacyclobutan-3-yl}imidazo[1,5-a]pyridin-8-yl)-N-(isopropyl)benzamide] | 8.3 nM | 42 nM | – | –
CCN(C(=O)c1cc(F)ccc1-c1cc(C2CN([C@H](CN3CCN(C[C@H](O)CO)CC3)C(C)C)C2)cc2c1cnn2C)C(C)C [Example 440] | – | – | 8.9 nM | 56 nM
CCN(C(=O)c1cc(F)ccc1-c1cc(C2CN([C@H](CN3CCS(=O)(=O)CC3)C(C)C)C2)cn2c(C)ncc12)C(C)C [Example 441-1, 2-(6-{1-[(2S)-1-(1,1-dioxo-thiomorpholin-4-yl)-3-methylbutan-2-yl]azacyclobutan-3-yl}-3-methylimidazo[1,5-a]pyridin-8-yl)-N-ethyl-5-fluoro-N-(isopropyl)benzamide] | 11 nM | 75 nM | – | –
CCN(C(=O)c1cc(F)ccc1-c1cc(C2CN(C(CC3COCCO3)C(C)C)C2)cn2c(C)ncc12)C(C)C (stereo not shown) [Example 445, 2-(6-{1-[1-(1,4-dioxane-2-yl)-3-methylbutan-2-yl]azacyclobutan-3-yl}-3-methylimidazo[1,5-a]pyridin-8-yl)-N-ethyl-5-fluoro-N-(isopropyl)benzamide] | 20 nM | 68 nM | – | –
Cc1ncc2c(-c3ccc(F)cc3C(=O)N(C)C(C)C)cc(C3CN([C@H](CCCN4CCN(CCO)CC4)C(C)C)C3)cn12 [Example 448-2] | 2.2 nM | – | – | 13 nM
CCN(C(=O)c1cc(F)ccc1-c1cc(C2CN([C@H](CC[C@@H]3COCCN3)C(C)C)C2)cn2c(C)ncc12)C(C)C [Example 449-1, N-ethyl-5-fluoro-2-(3-methyl-6-{1-[(3R)-4-methyl-1-[(3R)-morpholin-3-yl]pentan-3-yl]azacyclobutan-3-yl}imidazo[1,5-a]pyridin-8-yl)-N-(isopropyl)benzamide] | 2.6 nM | 6.1 nM | – | –
